Experimental data as given in patent publication US11976064B2, “Toll-like receptor agonists” (Pfizer Inc., priority 2019, dated 2024).

Each compound was assayed against T1, human toll like receptor 7 (hTLR7) (Homo sapiens, UniProt Q9NYK1) (assay: hTLR7 cell functional assay (HEK-Blue hTLR7 SEAP reporter)). Settings: HEK293 cells stably overexpressing hTLR7, SEAP reporter; geometric mean when tested more than once.
T1 construct: host or cells: HEK293 (HEK-Blue hTLR7)
T1 sequence (Q9NYK1 27-1049): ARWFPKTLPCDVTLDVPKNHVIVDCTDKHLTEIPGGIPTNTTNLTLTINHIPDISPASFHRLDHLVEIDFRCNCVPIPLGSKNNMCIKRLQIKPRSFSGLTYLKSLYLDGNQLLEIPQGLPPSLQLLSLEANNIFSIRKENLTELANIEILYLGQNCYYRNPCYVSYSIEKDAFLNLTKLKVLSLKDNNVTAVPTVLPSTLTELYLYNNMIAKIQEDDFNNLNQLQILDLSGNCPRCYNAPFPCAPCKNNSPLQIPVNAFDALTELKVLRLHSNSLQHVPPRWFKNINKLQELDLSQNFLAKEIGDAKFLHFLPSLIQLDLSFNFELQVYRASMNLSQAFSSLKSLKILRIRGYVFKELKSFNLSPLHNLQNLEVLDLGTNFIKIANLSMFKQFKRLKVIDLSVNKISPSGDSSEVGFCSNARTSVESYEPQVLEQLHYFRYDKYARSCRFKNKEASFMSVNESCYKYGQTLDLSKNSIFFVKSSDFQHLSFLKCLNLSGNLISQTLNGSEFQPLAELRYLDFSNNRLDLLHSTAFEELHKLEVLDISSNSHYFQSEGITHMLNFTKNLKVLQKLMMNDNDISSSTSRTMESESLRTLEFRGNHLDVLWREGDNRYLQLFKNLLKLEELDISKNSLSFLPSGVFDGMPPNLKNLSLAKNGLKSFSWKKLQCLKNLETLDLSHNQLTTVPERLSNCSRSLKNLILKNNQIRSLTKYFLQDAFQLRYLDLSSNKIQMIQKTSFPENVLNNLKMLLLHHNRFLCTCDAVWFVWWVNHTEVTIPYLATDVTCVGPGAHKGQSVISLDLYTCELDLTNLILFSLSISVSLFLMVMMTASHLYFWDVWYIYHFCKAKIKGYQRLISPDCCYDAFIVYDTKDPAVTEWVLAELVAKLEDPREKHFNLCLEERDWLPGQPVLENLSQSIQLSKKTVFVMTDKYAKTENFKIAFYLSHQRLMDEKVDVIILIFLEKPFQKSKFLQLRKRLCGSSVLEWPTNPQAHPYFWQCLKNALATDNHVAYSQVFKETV
Type: cell-based
Experimental: The Examples described were tested for biological activity in functional cellular assays using HEK293 cells stably overexpressing human TLR7 or TLR8. The assays tested for the ability of each Example to stimulate secretion of interferon alpha (IFNα) in human primary blood mono nuclear cells (PBMC).
To determine the ability of each Example to activate the human toll like receptor 7 (hTLR7) or human toll like receptor 8 (hTLR8), cell-based reporter systems were utilized. HEK293 cells stably overexpressing either hTLR7 or hTLR8 along with a reporter gene containing an optimized secreted embryonic alkaline phosphatase gene (SEAP), under the control of the IFN-b minimal promoter fused to five NF-κB and AP-1-binding sites, were obtained from Invivogen (HEK-Blue™ hTLR7, cat #Hkb-ht1r7; HEK-Blue™ hTLR8, cat #Hkb-ht1r8). Stimulation of hTLR7 or hTLR8 in these cells activates NF-κB and AP-1 and induces the production of SEAP which can be quantified using an alkaline phosphatase detection reagent.
Cells were maintained in Dulbecco's Modified Eagle Media (DMEM) (containing Fetal Bovine Serum (FBS) heat inactivated (10%), Glutamax (2 mM), Penicillin/Streptomycin, Blasticidin (10 μg/ml), Zeocin (100 μg/ml) and Normocin (100 μg/ml)). On day one of the assay, Examples were prepared using 11-point half-log serial dilutions from a 10mM DMSO stock solution and 50 nl was spotted into 384-well Viewplates (PerkinElmer, cat #6007480). Positive control TLR7/8 agonist and negative control (DMSO, no Example) were also spotted within the assay plate and were used to determine percent effect during the analysis process. After resuspension in DMEM assay media containing FBS heat inactivated (10%), Glutamax (2 mM) and Penicillin/Streptomycin, 10,000 cells/20 μl/well were added to previously prepared plates. Plates were incubated overnight (16-20 hrs) at 37° C. in a 5% CO2 environment. Prewetted Microclime lids (Labcyte, LLS-0310) were used to prevent evaporation. On day two of the assay, QUANTI-Blue™ detection reagent was prepared by reconstituting QUANTI-Blue™ powder (InvivoGen, Rep-qb1) with 100 ml of sterile water and allowed to equilibrate to 37° C. for 15 minutes. 20 μl of QUANTI-Blue™ detection reagent was added to each well and plates were incubated at room temperature for 180 min. At the end of the incubation, plates were read on an Envision (Perkin Elmer) plate reader capturing absorbance at 650 nm.
Using Positive (TLR7/8 agonist) and Negative (DMSO) controls, the percent (%) effect was calculated for each Example using the following equation: effect=100−[100*{(Example−Positive Control)/(Negative Control−Positive Control)}]
The % effect at each concentration of each Example was calculated utilizing the ABase software suite (IBDS) and was relative to the amount of SEAP produced in the positive and negative control wells contained within each assay plate. The concentrations and % effect values for each Example were fit using a 4-parameter logistic model in ABase and the concentration of each Example that produced 50% response (EC50) was calculated.

Row | Compound | EC50
1 | CCOCc1nc2c(N)nc3ccccc3c2n1CC(C)(CO)CO [Example 3, 2-((4-amino-2-(ethoxymethyl)-1H-imidazo[4,5-c]quinolin-1-yl)methyl)-2-methylpropane-1,3-diol] | 0.029 µM
2 | CCCCc1nc2c(N)nc3c(c2n1CC(C)(CO)CO)CCCC3 [Example 13, 2-((4-amino-2-butyl-6,7,8,9-tetrahydro-1H-imidazo[4,5-c]quinolin-1-yl)methyl)-2-methylpropane-1,3-diol] | 0.009 µM
3 | CCOCc1nc2c(N)nc(C)c(C)c2n1CC(CC)(CO)CO [Example 9, 2-((4-amino-2-(ethoxymethyl)-6,7-dimethyl-1H-imidazo[4,5-c]pyridin-1-yl)methyl)-2-ethylpropane-1,3-diol] | 0.027 µM
4 | CCCCc1nc2c(N)nc3ccccc3c2n1CC(C)(CO)CO [Example 10, 2-((4-amino-2-butyl-1H-imidazo[4,5-c]quinolin-1-yl)methyl)-2-methylpropane-1,3-diol] | 0.004 µM
5 | CCOCc1nc2c(N)nc(C)c(C)c2n1CC(C)(CO)COC (single isomer, unassigned) [Example 6, 3-(4-amino-2-(ethoxymethyl)-6,7-dimethyl-1H-imidazo[4,5-c]pyridin-1-yl)-2-(methoxymethyl)-2-methylpropan-1-ol] | 0.049 µM
6 | CCOCc1nc2c(N)nc(C)c(C)c2n1CC(C)(CO)CO [Example 2, 2-((4-amino-2-(ethoxymethyl)-6,7-dimethyl-1H-imidazo[4,5-c]pyridin-1-yl)methyl)-2-methylpropane-1,3-diol] | 0.054 µM
7 | Cc1nc(N)c2nc(CC(F)(F)F)n(CC(C)(CO)CO)c2c1C [Example 8, 2-((4-amino-6,7-dimethyl-2-(2,2,2-trifluoroethyl)-1H-imidazo[4,5-c]pyridin-1-yl)methyl)-2-methylpropane-1,3-diol] | 0.078 µM
8 | CCc1nc2c(N)nc3ccccc3c2n1CC(C)(CO)CO [Example 15, 2-((4-amino-2-ethyl-1H-imidazo[4,5-c]quinolin-1-yl)methyl)-2-methylpropane-1,3-diol] | 0.075 µM
9 | CCCc1nc2c(N)nc3ccccc3c2n1CC(C)(CO)CO [Example 16, 2-((4-amino-2-propyl-1H-imidazo[4,5-c]quinolin-1-yl)methyl)-2-methylpropane-1,3-diol] | 0.019 µM
10 | CCOCc1nc2c(N)nc(C)c(C)c2n1CC(CO)CO [Example 1, 2-((4-amino-2-(ethoxymethyl)-6,7-dimethyl-1H-imidazo[4,5-c]pyridin-1-yl)methyl)propane-1,3-diol] | 0.644 µM
11 | CCOCc1nc2c(N)nc(C)c(C)c2n1CC(C)(CO)COC (single isomer, unassigned) [Example 7, 3-(4-amino-2-(ethoxymethyl)-6,7-dimethyl-1H-imidazo[4,5-c]pyridin-1-yl)-2-(methoxymethyl)-2-methylpropan-1-ol] | 0.103 µM
12 | CCCCc1nc2c(N)nc3c(c2n1CC(C)(CO)CO)CCC3 [Example 14, 2-((4-amino-2-butyl-7,8-dihydrocyclopenta[b]imidazo[4,5-d]pyridin-1(6H)-yl)methyl)-2-methylpropane-1,3-diol] | 0.014 µM
